This note sets out measurements from PubChem BioAssay (NCI).

Test systems include M14 melanoma; SK-MEL-28 melanoma; HCT-116 colon; OVCAR-4 ovarian; OVCAR-5 ovarian; SN12C renal; HOP-92 NSCLC; OVCAR-8 ovarian; HOP-62 NSCLC; MALME-3M melanoma.
Holding throughout (assay): NCI anticancer screen, dose series, 48 h

Where “and” joins values, the source holds several entries; their conditions need not be identical. Equal values may be shown once.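 Five compound concentrations were applied to cells in 96-well plates for 48 hours; endpoints were derived by simple linear interpolation of the resulting dose-response curve. GI50 is the concentration that inhibits growth by half. TGI denotes the concentration required for complete inhibition of growth.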

With `CSc1ccc(-c2cn3ccsc3n2)c(O)c1`, the TGI was > 100 µM in the test with M14 melanoma; > 100 µM in the test with SK-MEL-28 melanoma; > 67.3 µM in the test with HCT-116 colon; 98.7 µM in the test with OVCAR-4 ovarian; > 100 µM in the test with OVCAR-5 ovarian; > 100 µM with SN12C renal. For the same compound, the TGI with HOP-92 NSCLC, with OVCAR-8 ovarian, in the test with HOP-62 NSCLC and in the test on MALME-3M melanoma was > 100 µM throughout.
Consider `COc1cc2c(c(OC)c1OC)-c1ccc(OC)c(=O)cc1[C@@H](NC(=O)CCl)CC2`, for which the GI50 in the test with M14 melanoma is < 0.01 µM; in the test with SK-MEL-28 melanoma, 0.304 µM; with HCT-116 colon it was < 0.01 µM; in the test with OVCAR-4 ovarian it was < 0.01 µM; in the test with SN12C renal it was < 0.0142 µM; in the test on OVCAR-8 ovarian, < 0.01 µM. Besides, the GI50 was < 0.01 µM in the test with HOP-62 NSCLC and 2.51 µM in the test with MALME-3M melanoma. The TGI with M14 melanoma was < 0.01 µM; with SK-MEL-28 melanoma it was 53.8 µM; in the test on HCT-116 colon it was 0.0157 µM; in the test with OVCAR-4 ovarian, > 100 µM; in the test with OVCAR-5 ovarian, 30.5 µM; in the test with SN12C renal, > 51.5 µM. Further, the TGI in the test on HOP-92 NSCLC is 7.2 µM; in the test on OVCAR-8 ovarian, > 33.6 µM; with HOP-62 NSCLC, 10.2 µM; in the test on MALME-3M melanoma it was 26.5 µM.
`C=C(C)C(=O)NC(N)=NC#N`: the GI50 in the test on M14 melanoma is 21 µM; in the test with SK-MEL-28 melanoma, 75 µM; with HCT-116 colon it was 131 µM; in the test on OVCAR-4 ovarian it was 140 µM; in the test with SN12C renal it was 72.1 µM; with HOP-92 NSCLC, 26.7 µM. For the same compound, the GI50 in the test with OVCAR-8 ovarian was 119 µM; with HOP-62 NSCLC, 206 µM; in the test on MALME-3M melanoma, 80.8 µM. The TGI was 47.8 µM and 131 µM in the test with M14 melanoma; > 56.9 µM and 205 µM in the test with SK-MEL-28 melanoma; 257 µM in the test on HCT-116 colon; 35.7 µM and 295 µM with OVCAR-4 ovarian; 304 µM with OVCAR-5 ovarian; 199 µM in the test on SN12C renal. Besides, the TGI in the test with HOP-92 NSCLC was 33.7 µM and 63.1 µM; in the test on OVCAR-8 ovarian, > 90 µM and 287 µM; with HOP-62 NSCLC it was 362 µM; in the test with MALME-3M melanoma, 63.2 µM and 214 µM.
With `CCCCCCCCCCCCCOC(=O)c1c(C)[nH]c(/C=C2\N=C(c3ccc[nH]3)C=C2OC)c1C`, the GI50 is 0.0178 µM in the test with M14 melanoma; 0.994 µM with SK-MEL-28 melanoma; < 0.0122 µM in the test on HCT-116 colon; 0.425 µM in the test with OVCAR-4 ovarian; 0.0929 µM in the test with OVCAR-5 ovarian; 0.156 µM in the test on SN12C renal. The GI50 is 0.0698 µM in the test on HOP-92 NSCLC, 0.0454 µM with OVCAR-8 ovarian, 0.801 µM in the test on HOP-62 NSCLC and 2.6 µM in the test on MALME-3M melanoma. Also, the TGI with M14 melanoma is 0.0461 µM; in the test with SK-MEL-28 melanoma it was > 52.6 µM; in the test on OVCAR-4 ovarian it was > 100 µM; with OVCAR-5 ovarian, > 100 µM; with SN12C renal, > 100 µM; with HOP-92 NSCLC, 0.497 µM. Moreover, the TGI with HOP-62 NSCLC was 14.2 µM; in the test on MALME-3M melanoma, > 100 µM.
As for `COc1cc2c(c(OC)c1OC)-c1ccc([O-])c(=O)cc1[C@@H](NC(C)=O)CC2.COc1cc2c(c(OC)c1OC)-c1ccc([O-])c(=O)cc1[C@@H](NC(C)=O)CC2.[Cu+2]`, the GI50 in the test with M14 melanoma is 2.79 µM; in the test with SK-MEL-28 melanoma, 7.82 µM; in the test with HCT-116 colon, 3.2 µM; in the test with OVCAR-4 ovarian, 4.91 µM; in the test on OVCAR-5 ovarian, 14.8 µM; in the test on SN12C renal it was 4.97 µM. Besides, the GI50 in the test with HOP-92 NSCLC is 17.5 µM; in the test with OVCAR-8 ovarian it was 3.77 µM; in the test with HOP-62 NSCLC, 5.67 µM; in the test on MALME-3M melanoma, 15 µM. The TGI in the test with M14 melanoma, in the test on SK-MEL-28 melanoma, in the test on HCT-116 colon, in the test on OVCAR-4 ovarian, in the test with OVCAR-5 ovarian and in the test on SN12C renal was > 100 µM throughout. The TGI is > 100 µM in the test with HOP-92 NSCLC, 34.5 µM with OVCAR-8 ovarian, > 100 µM in the test on HOP-62 NSCLC and > 100 µM in the test with MALME-3M melanoma.
For the compound `COc1ccc(-c2coc3ncnc(N)c23)cc1`, the GI50 in the test with M14 melanoma, with SK-MEL-28 melanoma, in the test on HCT-116 colon, in the test on OVCAR-4 ovarian, in the test on OVCAR-5 ovarian and in the test on SN12C renal was > 25 µM throughout. Also, the GI50 was > 14 µM with HOP-92 NSCLC, > 25 µM with OVCAR-8 ovarian, > 25 µM with HOP-62 NSCLC and > 25 µM with MALME-3M melanoma. Moreover, the TGI in the test on M14 melanoma, in the test on SK-MEL-28 melanoma, with HCT-116 colon, in the test on OVCAR-4 ovarian, in the test on OVCAR-5 ovarian and in the test on SN12C renal was > 25 µM in each case. Also, the TGI in the test on HOP-92 NSCLC, in the test on OVCAR-8 ovarian, with HOP-62 NSCLC and in the test on MALME-3M melanoma was > 25 µM throughout.
With `CCCCCCCCN(CCCCCCCC)C(=N)c1ccnc2ccccc12`, the GI50 is 0.336 µM in the test on M14 melanoma; 0.312 µM with SK-MEL-28 melanoma; 1.24 µM in the test with HCT-116 colon; 1.2 µM in the test on OVCAR-4 ovarian; 1.5 µM with OVCAR-5 ovarian; 1.16 µM with SN12C renal. Moreover, the GI50 is 1.02 µM in the test on HOP-92 NSCLC, 1.58 µM in the test with OVCAR-8 ovarian, 1.42 µM with HOP-62 NSCLC and 1.12 µM in the test on MALME-3M melanoma. Further, the TGI amounted to 1.36 µM in the test with M14 melanoma; 1.07 µM with SK-MEL-28 melanoma; 2.55 µM in the test with HCT-116 colon; 2.6 µM with OVCAR-4 ovarian; 3.05 µM in the test on OVCAR-5 ovarian; 2.68 µM in the test on SN12C renal. Moreover, the TGI was determined as 2.32 µM in the test with HOP-92 NSCLC, 3.27 µM in the test with OVCAR-8 ovarian, 2.88 µM with HOP-62 NSCLC and 2.59 µM in the test with MALME-3M melanoma.
On to `N=c1ccn2c(n1)OC1C(OP(=O)(O)O)C(CO)OC12` (stereo not given), for which the TGI with M14 melanoma is > 45.8 µM; in the test with SK-MEL-28 melanoma, > 100 µM; in the test on HCT-116 colon, > 100 µM; in the test on OVCAR-4 ovarian it was > 100 µM; in the test with OVCAR-5 ovarian it was > 100 µM; in the test on SN12C renal, > 100 µM. The TGI with HOP-92 NSCLC, in the test with OVCAR-8 ovarian, in the test on HOP-62 NSCLC and with MALME-3M melanoma was > 100 µM each time.
On to `Cc1cc(N(CCOS(C)(=O)=O)CCOS(C)(=O)=O)ccc1C=Nc1ccc(-c2csc(-c3ccccc3)n2)c(Cl)c1`, for which the TGI was 43.1 µM in the test on M14 melanoma; > 62.4 µM in the test on SK-MEL-28 melanoma; 40.5 µM with HCT-116 colon; 51.3 µM with OVCAR-4 ovarian; 55 µM in the test on OVCAR-5 ovarian; 44 µM with SN12C renal. Besides, the TGI was 27.6 µM with HOP-92 NSCLC, > 84.2 µM in the test with OVCAR-8 ovarian, 29.3 µM in the test on HOP-62 NSCLC and 25 µM in the test on MALME-3M melanoma.
